Laboratory results: patent US11130769B2 (Prelude Therapeutics Incorporated, priority 2018, dated 2021)
Read-outs that look alike come from different tables or passages of the source.

Experiments:
[1] = 16-membered ring
MCL-1 = MCL-1 (Homo sapiens (Human), UniProt Q07820); test: Cell free Mcl-1:Bim affinity assay (fluorescence polarization competition); type: binding; details: 15 nM MCL-1, 5 nM FITC-Bim, 1 hour at room temperature; class symbols; read-out: BIM_Ki
In short: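 Fluorescence polarization competition: 10-point 3-fold compound dilutions displaced 5 nM FITC-Bim from 15 nM MCL-1 over 1 h at room temperature. Ki was derived from the fitted IC50 using the Nikolovska-Coleska equation, with percent inhibition normalized to DMSO and positive controls.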

H929 cells = test: Cell viability assay (H929 10 FBS); type: cell-based; details: Homo sapiens, NCI-H929, 24 hours, read-out: H929_10FBS IC50
In short: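 ATP-based luminescence (CellTiter-Glo or ATPlite 1 Step, 30-60 min at RT) gauged viability of H929 myeloma cells after 24 h compound treatment at 37 °C. Cells plated at 4000 per well in 10% FBS RPMI 1640 supplemented with pyruvate, HEPES and glucose.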

Chain of MCL-1 (Q07820 whole entry): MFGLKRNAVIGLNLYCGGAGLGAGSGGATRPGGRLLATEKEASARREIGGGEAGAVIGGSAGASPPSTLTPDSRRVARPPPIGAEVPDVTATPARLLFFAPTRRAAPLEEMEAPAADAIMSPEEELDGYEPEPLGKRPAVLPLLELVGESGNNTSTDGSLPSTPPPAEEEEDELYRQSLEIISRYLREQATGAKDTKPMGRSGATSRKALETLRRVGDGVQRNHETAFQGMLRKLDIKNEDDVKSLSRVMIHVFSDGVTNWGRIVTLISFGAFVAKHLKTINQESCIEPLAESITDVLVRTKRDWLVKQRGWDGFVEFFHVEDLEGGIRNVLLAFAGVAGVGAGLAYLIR

Row | Ki (MCL-1) [nM] | IC50 (H929 cells) [nM] | SMILES | ring closure, yield after HPLC ([1]; from C=CCCNC(=O)NS(=O)(=O)c1ccc2c(c1)N(C[C@@H]1CC[C@H]1[C@@H](C=C)OC)C[C@@]1(CCCc3cc(Cl)ccc31)CO2, rcm bond, Hoveyda-Grubbs II, DCE, 1.5 mM, 80.0 °C, 16.0 h) [%] | ring closure, yield after HPLC ([1]; from CNCCOC(C)(C)C(=O)NS(=O)(=O)c1ccc2c(c1)N(C[C@@H]1CC[C@H]1C(=O)O)C[C@@]1(CCCc3cc(Cl)ccc31)CO2, amide bond, HATU/DIEA, DMF, 6.0 mM, 20.0 °C, 1.0 h) [%] | ring closure, yield after HPLC ([1]; from CN[C@@H](C)C(=O)NS(=O)(=O)c1ccc2c(c1)N(C[C@@H]1CC[C@H]1COCC(=O)O)C[C@@]1(CCCc3cc(Cl)ccc31)CO2, amide bond, HATU/DIEA, DMF, 20.0 mM, 20.0 °C, 1.0 h) [%]
1 | 1 to 100 | > 1000 | CN1CCOC(C)(C)C(=O)NS(=O)(=O)c2ccc3c(c2)N(C[C@@H]2CC[C@H]2C1=O)C[C@@]1(CCCc2cc(Cl)ccc21)CO3 [Example 110, (3R,6R,22S)-6′-Chloro-8,12,12-trimethyl-15,15-dioxo-spiro[11,20-dioxa-thia-1,8,14-triazatetracyclo[14.7.2.03,6.019,24]pentacosa-16(25),17,19(24)-triene-22,1′-tetralin]-7,13-dione] | – | 25 | –
2 | 1 to 100 | > 1000 | C[C@H]1C(=O)NS(=O)(=O)c2ccc3c(c2)N(C[C@@H]2CC[C@H]2COCC(=O)N1C)C[C@@]1(CCCc2cc(Cl)ccc21)CO3 [Example 196, (3R,6R,12S,22S)-6′-Chloro-11,12-dimethyl-15,15-dioxo-spiro[8,20-dioxa-15-thia-1,11,14-triazatetracyclo[14.7.2.03,6.019,24]pentacosa-16,18,24-triene-22,1′-tetralin]-10,13-dione] | – | – | 24.6

Row | SMILES | Ki (MCL-1) [nM] | IC50 (H929 cells) [nM] | ring closure, yield after HPLC ([1]; from C=CCCNC(=O)NS(=O)(=O)c1ccc2c(c1)N(C[C@@H]1CC[C@H]1[C@@H](C=C)OC)C[C@@]1(CCCc3cc(Cl)ccc31)CO2, rcm bond, Hoveyda-Grubbs II, DCE, 1.5 mM, 80.0 °C, 16.0 h) [%] | ring closure, yield after HPLC ([1]; from CNCCOC(C)(C)C(=O)NS(=O)(=O)c1ccc2c(c1)N(C[C@@H]1CC[C@H]1C(=O)O)C[C@@]1(CCCc3cc(Cl)ccc31)CO2, amide bond, HATU/DIEA, DMF, 6.0 mM, 20.0 °C, 1.0 h) [%] | ring closure, yield after HPLC ([1]; from CN[C@@H](C)C(=O)NS(=O)(=O)c1ccc2c(c1)N(C[C@@H]1CC[C@H]1COCC(=O)O)C[C@@]1(CCCc3cc(Cl)ccc31)CO2, amide bond, HATU/DIEA, DMF, 20.0 mM, 20.0 °C, 1.0 h) [%]
3 | CO[C@@H]1/C=C/CCNC(=O)NS(=O)(=O)c2ccc3c(c2)N(C[C@@H]2CC[C@H]21)C[C@@]1(CCCc2cc(Cl)ccc21)CO3 [Example 106, (3R,6R,7R,8E,22S)-6′-Chloro-7-methoxy-15,15-dioxo-spiro[20-oxa-15-thia-1,12,14-triazatetracyclo[14.7.2.03,6.019,24]pentacosa-8,16,18,24-tetraene-22,1′-tetralin]-13-one] | 1 to 100 | < 1000 | 43 | – | –
